Results from PubChem BioAssay (NCI).
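Cells were grown in 96-well plates and exposed to each compound for 48 hours at five concentrations; endpoints were interpolated linearly between bracketing concentrations, or set to the highest concentration if not reached. GI50 is the concentration that inhibits growth by half. Definition used: TGI = concentration required for complete inhibition of growth.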 Where a SMILES comes first, the peptide text is derived from it. [ ]: non-standard residue; d: D form. The star is where a group is joined. NMeF = CN[CH](Cc1ccccc1)C(=O)O; NMeV = CN[CH](C(=O)O)C(C)C; Boc = CC(C)(C)OC(=O)*; OBn = c1ccc(CO*)cc1

Key:
Assay in all cases: NCI anticancer screen, dose series, 48 h
NCI-H460 lung = test system: NCI-H460 lung
NCI-H522 lung = test system: NCI-H522 lung
SR leukemia = test system: SR leukemia
CAKI-1 renal = test system: CAKI-1 renal
SK-MEL-2 melanoma = test system: SK-MEL-2 melanoma
EKVX NSCLC = test system: EKVX NSCLC
SF-295 CNS = test system: SF-295 CNS
HOP-92 NSCLC = test system: HOP-92 NSCLC
NCI-H23 lung = test system: NCI-H23 lung
MDA-MB-435 = test system: MDA-MB-435

SMILES | TGI (NCI-H460 lung) [µM] | TGI (NCI-H522 lung) [µM] | TGI (SR leukemia) [µM] | TGI (CAKI-1 renal) [µM] | TGI (SK-MEL-2 melanoma) [µM] | TGI (EKVX NSCLC) [µM] | TGI (SF-295 CNS) [µM] | TGI (HOP-92 NSCLC) [µM] | TGI (NCI-H23 lung) [µM] | GI50 (NCI-H460 lung) [µM] | GI50 (NCI-H522 lung) [µM] | GI50 (EKVX NSCLC) [µM] | GI50 (SF-295 CNS) [µM] | GI50 (CAKI-1 renal) [µM] | GI50 (SK-MEL-2 melanoma) [µM] | GI50 (MDA-MB-435) [µM] | TGI (MDA-MB-435) [µM] | GI50 (NCI-H23 lung) [µM] | GI50 (HOP-92 NSCLC) [µM]
CC(C)O/C=C1\C(=O)C2(SCCS2)[C@H]2CCCC[C@@H]12 | > 100 | 53.9 | > 100 | > 100 | > 100 |  |  |  |  |  |  |  |  |  |  |  |  |  | 
CSC(=S)N(C)NC(=O)c1cccc(C(=O)NN(C)C(=S)SC)n1 | > 100 | 40.1 | > 100 |  |  | > 100 | 16 | 55 | > 100 |  |  |  |  |  |  |  |  |  | 
CNC1=C(C)C(=O)C(C)=C(C(C)(C)CC(=O)n2cc(F)c(=O)[nH]c2=O)C1=O | > 100 | > 100 |  | > 100 | > 100 | > 100 | > 100 | > 100 | > 100 |  |  |  |  |  |  |  |  |  | 
COc1cc(NCC(C#N)C#N)ccc1N=Nc1ccc([N+](=O)[O-])cc1 | > 100 | > 100 | > 100 | > 100 | > 100 | > 100 | > 100 |  | > 100 |  |  |  |  |  |  |  |  |  | 
CC1SC2=NC3=C(c4ccccc4C3=O)C(c3ccc(Br)cc3)N2C1=O (stereo not drawn) | > 100 | 48.3 |  | > 100 | > 100 | > 100 | > 100 | > 100 | > 100 |  |  |  |  |  |  |  |  |  | 
CC(C)[C@@H](C(=O)O[C@@H]1/C=C/C(=O)O[C@@H](C)CCC/C=C/[C@@H]2C[C@H](O)C[C@H]21)[N+](C)(C)C | > 100 | > 100 |  | > 100 | > 100 | > 100 | > 100 |  | > 100 | > 100 | > 100 | > 100 | > 100 | > 100 | > 100 | > 100 | > 100 | > 100 | 
COc1cc2c(cc1OCCCCCCNC(=O)c1cc3ccccc3[nH]1)N=CC1CCCN1C2=O (stereo not drawn) | 62.7 | 88.1 |  |  |  | 65.4 | > 100 | > 100 | > 100 | 16.8 | 18.7 | 14.4 | 31.1 |  |  | 39.3 | > 100 | 51 | 25.3
O=C1c2cnccc2Cc2cccc3c2N1c1ccccc1S3 |  | 32.2 | 34.8 | 32.6 | 32.5 |  | 63.2 | 38.5 | 52.7 |  |  |  |  |  |  |  |  |  | 
O=C1C2Cc3ccccc3CN2C(=O)N1CN1CCN(CN2C(=O)C3Cc4ccccc4CN3C2=O)CC1 (stereo not drawn) | > 100 | > 100 |  | > 100 | > 100 | > 100 | > 100 | > 100 | > 100 |  |  |  |  |  |  |  |  |  | 
OCCc1cnco1 | > 100 | > 100 |  |  |  | > 100 | > 100 |  | > 100 |  |  |  |  |  |  |  |  |  | 
C[C@@H]1CN(Cc2ccc(/C=C/c3n[nH]c4ccc5nc(-c6cn[nH]c6C(F)(F)F)c6c(c5c34)CCCC6)cc2)C[C@H](C)O1 | 10.2 | 16.2 |  | 11.5 | 33.8 | 17.3 | 18.1 | 17.9 | 21.7 | 1.35 | 2.02 | 3.7 | 3.35 | 2.29 | 13.5 | 6.81 | 21.2 | 5.71 | 3.12
COc1ccc(CNc2nc3ccccc3nc2-c2cccs2)cc1OC | > 100 |  | > 100 |  | > 100 | > 100 | > 100 | 51.3 | > 100 |  |  |  |  |  |  |  |  |  | 
CC(C)C(NC(=O)OC(C)(C)C)C(=O)N(C)C(Cc1ccccc1)C(=O)N(C)C(C(=O)N(C)C(C(=O)OCc1ccccc1)C(C)C)C(C)C (stereo not drawn) (Boc-V[NMeF][NMeV][NMeV]-OBn; configuration not given here) | > 100 | > 100 | > 100 |  |  | > 100 | > 100 |  | > 100 |  |  |  |  |  |  |  |  |  | 
CCOC(=O)CNC(SC)=C(C#N)C#N | > 100 | > 100 | > 100 | > 100 |  | > 100 | > 100 | > 100 | > 100 |  |  |  |  |  |  |  |  |  | 
O=C1c2c(c3c4ccccc4n4c3c3c2c2ccccc2n3C/C=C\C4)C(=O)N1Cc1ccccc1 | > 100 | > 100 | > 100 |  |  | > 100 | > 100 |  | > 100 |  |  |  |  |  |  |  |  |  | 
CSc1nc2c(nc(N)n2C2OCC(O)C(O)C2O)c(=O)[nH]1 (stereo not drawn) | > 100 | > 100 | > 100 | > 100 |  | > 100 | > 100 | > 100 | > 100 |  |  |  |  |  |  |  |  |  | 
NC1=CC(=O)C(=O)c2cccnc21 | 7.38 | 22.6 |  | 31.2 | 15.6 | 26.1 | 10.3 |  | 7.84 | 2.63 | 7.32 | 12.5 | 2.48 | 8.45 | 3.85 | 1.74 | 3.17 | 2.06 | 
O=C(N/C(=C\c1ccc([N+](=O)[O-])cc1)c1nc2[nH]c(=S)[nH]c(=O)c2[nH]1)c1ccccc1 |  | > 100 | > 100 | > 100 | > 100 | > 100 | > 100 | > 100 | > 100 |  |  |  |  |  |  |  |  |  | 
O=C1Cc2ccccc2N1/N=C\c1ccc(O)cc1 | > 100 |  |  | > 100 | > 100 | > 100 | > 100 | > 100 | > 100 |  |  |  |  |  |  |  |  |  | 
C(=C1\CCC/C(=C/c2ccccc2)C1=NNc1ccccc1)/c1ccccc1 | > 100 | > 100 |  |  | > 100 | > 100 | > 100 | > 100 | > 100 |  |  |  |  |  |  |  |  |  | 
COc1ccc(/C=C/c2nc(N3CCOCC3)c3cc(F)c(F)cc3n2)cc1OC | > 100 | > 100 |  | > 100 | > 100 |  | > 100 | 87.2 | > 100 | 5.86 | 6.86 |  | 3.9 | 3.23 | 9.48 | 3.18 | > 100 | 6.05 | 4.13
